Results as given in patent US20240287054A1, “COMPOUNDS THAT BIND NON-CANONICAL G-QUADRUPLEX STRUCTURES AND METHODS OF MAKING AND USING THE SAME” (The U.S.A., as Represented by the Secretary, Department of …, priority 2021, published 2024).

Tests used:
PIM1-form1 HP-G4 = assay: FIA binding test with PIM1-form1 HP-G4 ((3+1) hybrid structure)
Description: In this study, FIA was used for validating the bindings between certain bivalent and MYCN G4 oligos. To measure the binding affinity, a solution of each compound was prepared in triplicate in a 96 well-plate (Costar, black side clear bottom), resulting in a final concentration of 100 nM (5% final DMSO in the working solution). Unlabeled MYCN G4 DNA was folded based on the above-mentioned annealing method, then added into the well plate resulting in different concentrations by a seral dilution. The plate was incubated at room temperature for 30 min, followed by centrifuging at 500 rpm for 2 minutes. The fluorescence intensity was then quantitatively recorded by a Synergy Mx microplate reader (BioTek) at Ex 340 nm/Em 500 nm. The fluorescence intensities were then normalized, and the binding affinity was calculated by fitting the curve using one-site total model in GraphPad Prism 8.3.1 software.
In addition to the DMS-footprinting study, the bivalent binding mode of compound B33 toward MYCN hairpin-G4 was also investigated by comparing HP-G4s with different folding types. Four reported HP-G4s with parallel structure (BCL2), (3+1) hybrid structure (HIV and PIM1-form1), and (2+2) chair-type structure (PIM1-form2) were examined by FIA binding test using compound B33 (FIGS. 41A, 41B, 42A, 42B, 43A, 43B, 44A, and 44B). […]

[1] = system: ~19,000 different G4 sequences, G4 and non-G4 controls; assay: High-density DNA oligo microarray (~19,000 G4 sequences) selectivity profiling; format: binding; settings: 500 nM compound
Text: To further characterize the binding selectivity of compound B33, high-density and large-scale DNA microarrays that contained ˜19,000 different G4 sequences were fabricated and used. In this microarray, 340 reported G4s (G-rich sequences) as well as 280 non-G4s (C-rich sequences) were designed as positive and negative controls. Additionally, over 17,000 canonical G4 oligos with short loops (1˜7 nt) were also designed and synthesized by varying the loop sequences to meet the diversity of G4 structure. After folding the surface-grafted DNA oligos in high concentration of KCl buffer, TO and compound B33 solutions (500 nM) were incubated with the microarray, respectively. Then the slides were thoroughly washed, dried, and imaged by a fluorescent scanner using green channel. […] By quantifying the fluorescence intensity of each spot, the bindings of TO and compound B33 were further investigated. The kernel density estimate (KDE) plot and violin plot represented the distribution of the binding signals throughout the whole microarray. […] Compound B33 spectrum spanned a much wider range than that of TO. In the violin plot (FIG. 37C), the mean SNR value of TO group was 12, much higher than that of the compound B33 group. […] Furthermore, the selectivity of the two compounds were quantitatively profiled by using Gini coefficient. Gini coefficient, initially used as an economic concept, has been applied in profiling the selectivity/promiscuity of kinase inhibitors as well as RNA binders. A higher Gini value represents a better selectivity of a compound (Gini coefficient>0.75 is considered an excellent selectivity). The Gini coefficient based on the SNRs in the microarray.

MYCN G4 DNA = assay: Fluorescence quenching of position-labeled MYCN G4 (2-AP at A11/A18/A24, 5′/3′-Cy5); format: binding, human
Description: Fluorescence intensity assay. In this disclosure, fluorescence intensity assay (FIA) was used for both validation of hit binding at a single dose and binding affinity determination. For validating hit compounds from SMM screening, 100 μM solution of each compound was prepared in triplicate in a 96 well-plate (Costar, black side clear bottom), resulting in 5% DMSO concentration. 5′Cy5-labeled MYCN G4 DNA was annealed as described above, then added into the well plate resulting in a final concentration of 100 nM. The plate was incubated shaking for 30 min, followed by centrifuging at 500 rpm for 2 minutes. The fluorescence intensity was then measured on a Synergy Mx microplate reader (BioTek) at Ex 649 nm/Em 670 nm. TMPyP4/DMSO were used as positive and negative controls, respectively. In certain examples, compounds were considered binders when a change of >10% change in fluorescence intensity was observed compared to that of negative control (DMSO solution). For binding affinity measurement, small molecule solutions were prepared as serial dilutions in DMSO. Then a final test plate was prepared by adding 5 μL small molecule solutions and 10 μL annealed DNA samples into 85 μL buffer solutions, resulting in the final small molecule concentrations from 0 to 250 μM (5% final DMSO concentration). The fluorescence intensities were normalized, and the binding affinity was calculated by fitting the curve using one-site total model in GraphPad Prism 8.3.1 software. The fluorescence titration using 3′-labeled oligonucleotides was also performed the same way.
2-Aminopurine (2-AP) fluorescence titration. Fluorescence titrations based on 2-aminopurine labeling were performed using the protocol reported previously. Briefly, MYCN G4 oligonucleotide with a 2-AP substitution at either A11 or A18 position was annealed by heating the sample to 95° C. for 5 min and cooling down to RT slowly. The oligonucleotide with folded structure was diluted to 10 μM in Tris buffer (10 mM Tris, pH7.0, 100 mM KCl, 0.005% Tween 20) and prepared in a black 96-well plate (Costar) in triplicate as designed. Small molecules were diluted in DMSO to obtain a series of solutions with concentrations ranging from 0.1 to 5 mM, and then diluted by 20 times added into the plate (5% DMSO final concentration). The final concentration of 2-AP DNA was 1 μM in the well plate. To obtain the background fluorescence, small molecule solutions without DNA were also prepared in the same plate. After incubation for 30 min at RT, the plate was briefly centrifuged and scanned in Synergy Mx microplate reader (BioTek) with Ex 310 nm/Em 365 nm. Fluorescence signals were calculated by averaging the intensities in triplicate wells after subtracting the references. Finally, the binding signals were normalized and the KD value was determined by fitting the curve using a nonlinear sigmoidal dose-response model with a variable slope in GraphPad Prism 8.3.1 software.
To further understand the binding details between compound MY-1 and MYCN G4, a series of FIA studies were designed and performed. […] After incubating 100 μM MY-1 with labeled DNA samples, fluorescence intensities were measured and compared to DMSO controls. Fluorescence of the A11 2-AP DNA sample was quenched by almost 100%, while the quenching percentages were 80% and 70% for A18 and A24 2-AP DNAs, respectively (FIG. 24B, FIGS. 25A-25C). […]

COc1ccc(-c2noc(-c3ccc(NCCCNc4c5ccc(Cl)cc5nc5ccc(OC)cc45)nn3)n2)cc1 [B33, N^1-(6-chloro-2-methoxyacridin-9-yl)-N^3-(6-(3-(4-methoxyphenyl)-1,2,4-oxadiazol-5-yl)pyridazin-3-yl)propane-1,3-diamine]
Kd (PIM1-form1 HP-G4): 0.279 ± 0.032 µM | binding to the 620 G4 and non-G4 controls ([1]; 340 G4s and 280 non-G4s): some binding to G4s while there was no binding observed in non-G4 group | Gini coefficient ([1]; based on SNRs in the microarray): 0.628

COc1ccc(-c2noc(-c3ccc(NCCCN4CCCC4)nn3)n2)cc1 [MY-1, 6-(3-(4-methoxyphenyl)-1,2,4-oxadiazol-5-yl)-N-(3-(pyrrolidin-1-yl)propyl)pyridazin-3-amine]
fluorescence quenching, 3′-Cy5 labeled oligo (MYCN G4 DNA; 100 μM MY-1): 0% | fluorescence quenching, 5′-Cy5 labeled oligo (MYCN G4 DNA; 100 μM MY-1): 15% | fluorescence quenching, A11 2-AP DNA (MYCN G4 DNA; 100 μM MY-1 vs DMSO control): ~100% | fluorescence quenching, A18 2-AP DNA (MYCN G4 DNA; 100 μM MY-1 vs DMSO control): 80% | fluorescence quenching, A24 2-AP DNA (MYCN G4 DNA; 100 μM MY-1 vs DMSO control): 70%
